Data as given in ChEMBL document CHEMBL5034015, “Structure-Based Optimization of 3-Phenyl-N-(2-(3-phenylureido)ethyl)thiophene-2-sulfonamide Derivatives as Selective Mcl-1 Inhibitors” (J Med Chem, 2021).
Calls of active or inactive are those of the source. Unless noted, no cut-off for these calls is given here.

Legend:
HeLa = experiment: cells; conditions: Homo sapiens, 48 h
Description: Cytotoxicity against human HeLa cells assessed as inhibition of cell growth incubated for 48 hrs by CCK8 assay

Bcl-2-like protein 1 [1] = biological target: T1, Bcl-2-like protein 1 (Homo sapiens, UniProt Q07817); experiment: Binding affinity to full length human Bcl-xl expressed in Escherichia coli BL21 (DE3) at up to 100 uM preincubated for 30 mins followed by 5-FAM-QEDIIIINIARHLAQVGDSMD-RSIPPG tracer addition and measured after 20 mins by fluorescence polarization assay; conditions: dose microM <=100, time 50.0 min
T1 sequence (Q07817 whole entry): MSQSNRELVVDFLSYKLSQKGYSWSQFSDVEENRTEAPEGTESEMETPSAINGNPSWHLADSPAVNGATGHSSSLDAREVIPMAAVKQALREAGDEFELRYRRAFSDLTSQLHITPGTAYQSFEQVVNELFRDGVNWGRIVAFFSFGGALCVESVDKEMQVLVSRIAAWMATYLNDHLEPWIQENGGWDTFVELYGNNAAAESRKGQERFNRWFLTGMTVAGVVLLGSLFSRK

RS4-11 [2] = experiment: cells; conditions: Homo sapiens, RS4-11, 48 h
Description: Cytotoxicity against human RS4-11 cells assessed as inhibition of cell growth incubated for 48 hrs by CCK8 assay

HL-60 [3] = experiment: Cytotoxicity against human HL-60 cells assessed as cell viability at 20 uM incubated for 48 hrs by CCK8 assay relative to control; assay type: functional; conditions: read-out: Activity
HEK-293T = experiment: Cytotoxicity against HEK293T cells assessed as reduction in cell viability incubated for 48 hrs by CCK8 assay; conditions: Homo sapiens
[4] = biological target: T2, Apoptosis regulator Bcl-2 (Homo sapiens, UniProt P10415); experiment: Binding affinity to full length human Bcl-2 expressed in Escherichia coli BL21 (DE3) at up to 100 uM preincubated for 30 mins followed by 5-FAM-QEDIIIINIARHLAQVGDSMD-RSIPPG tracer addition and measured after 20 mins by fluorescence polarization assay; conditions: dose microM <=100, time 50.0 min
T2 sequence (P10415 whole entry): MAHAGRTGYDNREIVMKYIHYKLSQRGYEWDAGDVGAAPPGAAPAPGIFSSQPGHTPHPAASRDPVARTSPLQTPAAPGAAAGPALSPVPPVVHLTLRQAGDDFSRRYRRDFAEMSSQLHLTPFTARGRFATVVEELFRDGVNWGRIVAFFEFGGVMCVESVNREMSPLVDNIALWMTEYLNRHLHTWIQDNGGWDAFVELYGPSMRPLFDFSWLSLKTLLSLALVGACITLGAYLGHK

[5] = biological target: T3, Induced myeloid leukemia cell differentiation protein Mcl-1 (Homo sapiens, UniProt Q07820); experiment: Binding affinity to full length human MCL1 expressed in Escherichia coli BL21 (DE3) assessed as inhibition constant preincubated for 30 mins followed by 5-FAM-QEDIIIINIARHLAQVGDSMD-RSIPPG tracer addition and measured after 20 mins by fluorescence polarization assay
T3 sequence (Q07820 whole entry, the tested form may be a part): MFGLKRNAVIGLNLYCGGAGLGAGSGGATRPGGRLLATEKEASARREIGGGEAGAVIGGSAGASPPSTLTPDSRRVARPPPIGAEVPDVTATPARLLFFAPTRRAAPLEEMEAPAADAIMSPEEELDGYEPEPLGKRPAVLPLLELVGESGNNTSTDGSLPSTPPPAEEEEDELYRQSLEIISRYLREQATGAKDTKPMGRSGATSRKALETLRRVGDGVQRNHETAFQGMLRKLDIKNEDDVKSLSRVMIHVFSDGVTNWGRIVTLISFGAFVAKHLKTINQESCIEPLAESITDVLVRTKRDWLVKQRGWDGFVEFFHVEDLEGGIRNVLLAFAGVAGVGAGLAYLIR

[6] = biological target: T3, Induced myeloid leukemia cell differentiation protein Mcl-1; experiment: Binding affinity to 15N-labeled human MCL1 (172 to 327 residues) expressed in Escherichia coli BL21 (DE3) assessed as chemical shift at H224 residue at 0.3 mM incubated for 1 hr by 15N HSQC NMR spectroscopy analysis
[7] = biological target: T3, Induced myeloid leukemia cell differentiation protein Mcl-1; experiment: Binding affinity to 15N-labeled human MCL1 (172 to 327 residues) expressed in Escherichia coli BL21 (DE3) assessed as chemical shift at R263 residue at 0.3 mM incubated for 1 hr by 15N HSQC NMR spectroscopy analysis
[8] = biological target: Induced myeloid leukemia cell differentiation protein Mcl-1/Bcl-2-like protein 11 (Homo sapiens) (UniProt Q07820+O43521); experiment: Inhibition of MCL1/Bim interaction in human MCF7 cells assessed as disruption of MCL1/Bim complex at 10 uM measured after 24 hrs by co-immunoprecipitation based western blot analysis relative to control; assay type: cell-based
Chain of Induced myeloid leukemia cell differentiation protein Mcl-1/Bcl-2-like protein 11 (Homo sapiens) (O43521 whole entry, looked up): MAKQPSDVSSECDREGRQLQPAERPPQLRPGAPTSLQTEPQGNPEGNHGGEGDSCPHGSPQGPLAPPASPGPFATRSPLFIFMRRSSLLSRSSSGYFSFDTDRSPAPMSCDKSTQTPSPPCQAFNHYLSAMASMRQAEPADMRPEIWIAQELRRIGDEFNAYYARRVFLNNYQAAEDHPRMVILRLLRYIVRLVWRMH
Chain of Induced myeloid leukemia cell differentiation protein Mcl-1/Bcl-2-like protein 11 (Homo sapiens) (Q07820 whole entry, looked up): as the sequence (Q07820 whole entry, the tested form may be a part) above

MCF7 = experiment: Inhibition of Bcl-2/Bim interaction in human MCF7 cells assessed as disruption of Bcl-2/Bim complex at 10 uM measured after 24 hrs by co-immunoprecipitation based western blot analysis relative to control; assay type: cell-based
RS4-11 [9] = experiment: Induction of apoptosis in human RS4-11 cells assessed as necrotic cells at 20 uM measured after 24 hrs by Annexin V/7-AAD and MitoSense Red staining based flow cytometry analysis relative to control (reference value: 1.11 %); assay type: functional
[10] = biological target: T3, Induced myeloid leukemia cell differentiation protein Mcl-1; experiment: Binding affinity to 15N-labeled human MCL1 (172 to 327 residues) expressed in Escherichia coli BL21 (DE3) assessed as chemical shift at L235 residue at 0.3 mM incubated for 1 hr by 15N HSQC NMR spectroscopy analysis
RS4-11 [11] = experiment: Induction of apoptosis in human RS4-11 cells assessed as late apoptotic cells at 20 uM measured after 24 hrs by Annexin V/7-AAD and MitoSense Red staining based flow cytometry analysis relative to control (reference value: 0.99 %); assay type: functional
[12] = biological target: T3, Induced myeloid leukemia cell differentiation protein Mcl-1; experiment: Binding affinity to 15N-labeled human MCL1 (172 to 327 residues) expressed in Escherichia coli BL21 (DE3) assessed as chemical shift at F228 residue at 0.3 mM incubated for 1 hr by 15N HSQC NMR spectroscopy analysis
[13] = biological target: T3, Induced myeloid leukemia cell differentiation protein Mcl-1; experiment: Binding affinity to 15N-labeled human MCL1 (172 to 327 residues) expressed in Escherichia coli BL21 (DE3) assessed as chemical shift at M231 residue at 0.3 mM incubated for 1 hr by 15N HSQC NMR spectroscopy analysis
RS4-11 [14] = experiment: Induction of apoptosis in human RS4-11 cells assessed as viable cells at 20 uM measured after 24 hrs by Annexin V/7-AAD and MitoSense Red staining based flow cytometry analysis relative to control (reference value: 94.15 %); assay type: functional; conditions: read-out: Activity
HL-60 [15] = experiment: cells; conditions: Homo sapiens, HL-60, 48 h
Description: Cytotoxicity against human HL-60 cells assessed as inhibition of cell growth incubated for 48 hrs by CCK8 assay

RS4-11 [16] = experiment: Induction of apoptosis in human RS4-11 cells assessed as early apoptotic cells at 20 uM measured after 24 hrs by Annexin V/7-AAD and MitoSense Red staining based flow cytometry analysis relative to control (reference value: 3.75 %); assay type: functional
[17] = biological target: T3, Induced myeloid leukemia cell differentiation protein Mcl-1; experiment: Binding affinity to 15N-labeled human MCL1 (172 to 327 residues) expressed in Escherichia coli BL21 (DE3) assessed as chemical shift at M250 residue at 0.3 mM incubated for 1 hr by 15N HSQC NMR spectroscopy analysis
[18] = biological target: T3, Induced myeloid leukemia cell differentiation protein Mcl-1; experiment: Binding affinity to full length human MCL1 expressed in Escherichia coli BL21 (DE3) at 100 uM preincubated for 30 mins followed by 5-FAM-QEDIIIINIARHLAQVGDSMD-RSIPPG tracer addition and measured after 20 mins by fluorescence polarization assay relative to control; conditions: time 50.0 min
Bcl-2-like protein 1 [19] = biological target: T1, Bcl-2-like protein 1; experiment: Binding affinity to full length human Bcl-xl expressed in Escherichia coli BL21 (DE3) at 100 uM preincubated for 30 mins followed by 5-FAM-QEDIIIINIARHLAQVGDSMD-RSIPPG tracer addition and measured after 20 mins by fluorescence polarization assay relative to control; conditions: time 50.0 min
[20] = biological target: T2, Apoptosis regulator Bcl-2; experiment: Binding affinity to full length human Bcl-2 expressed in Escherichia coli BL21 (DE3) at 100 uM preincubated for 30 mins followed by 5-FAM-QEDIIIINIARHLAQVGDSMD-RSIPPG tracer addition and measured after 20 mins by fluorescence polarization assay relative to control; conditions: time 50.0 min
[21] = biological target: T3, Induced myeloid leukemia cell differentiation protein Mcl-1; experiment: Binding affinity to full length human MCL1 expressed in Escherichia coli BL21 (DE3) at up to 100 uM preincubated for 30 mins followed by 5-FAM-QEDIIIINIARHLAQVGDSMD-RSIPPG tracer addition and measured after 20 mins by fluorescence polarization assay; conditions: dose microM <=100, time 50.0 min
RS4-11 [22] = experiment: Induction of apoptosis in human RS4-11 cells assessed as early apoptotic cells at 1 uM measured after 24 hrs by Annexin V/7-AAD and MitoSense Red staining based flow cytometry analysis relative to control (reference value: 3.75 %); assay type: functional
RS4-11 [23] = experiment: Induction of apoptosis in human RS4-11 cells assessed as increase in cleaved caspase 3 expression incubated for 48 hrs by western blot analysis; assay type: functional, cell-based
RS4-11 [24] = experiment: Induction of apoptosis in human RS4-11 cells assessed as viable cells at 1 uM measured after 24 hrs by Annexin V/7-AAD and MitoSense Red staining based flow cytometry analysis relative to control (reference value: 94.15 %); assay type: functional; conditions: read-out: Activity
RS4-11 [25] = experiment: Induction of apoptosis in human RS4-11 cells assessed as late apoptotic cells at 1 uM measured after 24 hrs by Annexin V/7-AAD and MitoSense Red staining based flow cytometry analysis relative to control (reference value: 0.99 %); assay type: functional
RS4-11 [26] = experiment: Induction of apoptosis in human RS4-11 cells assessed as increase in cleaved PARP expression incubated for 48 hrs by western blot analysis; assay type: functional, cell-based
RS4-11 [27] = experiment: Induction of apoptosis in human RS4-11 cells assessed as increase in cleaved caspase 9 expression incubated for 48 hrs by western blot analysis; assay type: functional, cell-based
RS4-11 [28] = experiment: Induction of apoptosis in human RS4-11 cells assessed as necrotic cells at 1 uM measured after 24 hrs by Annexin V/7-AAD and MitoSense Red staining based flow cytometry analysis relative to control (reference value: 1.11 %); assay type: functional
RS4-11 [29] = experiment: Antitumor activity against human RS4-11 cells xenografted in SCID mouse assessed as reduction in Ki-67 positive cells administered intraperitoneally for 19 days by immunohistochemical analysis; assay type: functional, cell-based; conditions: time 19.0 day
[30] = Toxicity in NOD/SCID mouse xenografted with human RS4-11 cells assessed as reduction in body weight at 12.5 to 50 mg/kg, ip administered every 2 days for 22 days; assay type: organism-based; conditions: in vivo, 528 h, dose 12.5-50 mg/kg, time 22 day
RS4-11 [31] = experiment: Antitumor activity against human RS4-11 cells xenografted in NOD/SCID mouse assessed as inhibition of tumor growth at 25 mg/kg, ip administered every 2 days for 22 days and measured every 3 days relative to control; assay type: functional; set-up: scale not given: the % may be the effect or the level left; conditions: time 22 day
RS4-11 [32] = experiment: Antitumor activity against human RS4-11 cells xenografted in NOD/SCID mouse assessed as reduction in tumor volume at 50 mg/kg, ip administered every 2 days for 22 days and measured every 3 days relative to control; assay type: functional; set-up: scale not given: the % may be the effect or the level left; conditions: time 22 day
RS4-11 [33] = experiment: Antitumor activity against human RS4-11 cells xenografted in NODSCID mouse assessed as inhibition of tumor growth at 12.5 mg/kg, ip administered every 2 days for 22 days and measured every 3 days relative to control; assay type: functional; set-up: scale not given: the % may be the effect or the level left; conditions: time 22 day

CC(C)c1ccc(Oc2ccc(O)c(O)c2)c(-c2ccsc2S(=O)(=O)NCCNC(=O)Nc2cc(C(F)(F)F)cc(C(F)(F)F)c2)c1
IC50 (HeLa): > 50 µM | Activity (Bcl-2-like protein 1 [1]): inactive | IC50 (RS4-11 [2]): 6.8 µM | viability at 20 µM (HL-60 [3]): 23% | IC50 (HEK-293T): > 20 µM | Activity [4]: inactive | Ki [5]: 0.36 µM

Cc1ccc(-c2ccsc2S(=O)(=O)NCCNC(=O)Nc2cc(C(F)(F)F)cc(C(F)(F)F)c2)c(Oc2ccc(O)c(O)c2)c1
Activity [6]: Active | Activity [7]: Active | inhibition [8]: 70% | IC50 (HeLa): 9.7 µM | Activity (Bcl-2-like protein 1 [1]): inactive | IC50 (RS4-11 [2]): 5.6 µM | inhibition (MCF7): inactive | Activity (RS4-11 [9]): 3.19% | Activity [10]: Active | Activity (RS4-11 [11]): 75.04% | Activity [12]: Active | IC50 (HEK-293T): > 20 µM | Activity [13]: Active | Activity [4]: inactive | viability at 20 µM (RS4-11 [14]): 8.79% | IC50 (HL-60 [15]): 3.7 µM | Activity (RS4-11 [16]): 12.98% | Activity [17]: Active

COc1ccc(Oc2ccc([N+](=O)[O-])cc2-c2ccsc2S(=O)(=O)N2CCN(C(=S)Nc3ccc(Cl)cc3)CC2)cc1OC
inhibition [18]: 41% | inhibition [8]: 30% | IC50 (HeLa): > 50 µM | IC50 (RS4-11 [2]): > 50 µM | inhibition (Bcl-2-like protein 1 [19]): 37% | IC50 (HEK-293T): > 50 µM | IC50 (HL-60 [15]): > 50 µM | inhibition [20]: 18%

CC1(C)CCC(CN2CCN(c3ccc(C(=O)NS(=O)(=O)c4ccc(NCC5CCOCC5)c([N+](=O)[O-])c4)c(Oc4cnc5[nH]ccc5c4)c3)CC2)=C(c2ccc(Cl)cc2)C1 [VENETOCLAX]
Activity [21]: inactive | Activity (RS4-11 [22]): 10.75% | Activity (RS4-11 [23]): Dose-Dependent Effect | viability at 1 µM (RS4-11 [24]): 0.45% | Activity (RS4-11 [25]): 88.54% | Activity (RS4-11 [26]): Dose-Dependent Effect | Activity (RS4-11 [27]): Dose-Dependent Effect | Activity (RS4-11 [28]): 0.26%

COc1ccc(Oc2cc(C)ccc2-c2ccsc2S(=O)(=O)NCCNC(=O)Nc2cc(C(F)(F)F)cc(C(F)(F)F)c2)cc1OC
Activity (RS4-11 [29]): Dose-Dependent Effect | Activity [30]: Non-Toxic | Activity (RS4-11 [31]): >60% | inhibition [8]: 30% | IC50 (HeLa): 10.2 µM | Activity (Bcl-2-like protein 1 [1]): inactive | IC50 (RS4-11 [2]): 5.6 µM | inhibition (MCF7): inactive | Activity (RS4-11 [9]): 0.24% | Activity (RS4-11 [23]): Dose-Dependent Effect | Activity (RS4-11 [11]): 94.21% | IC50 (HEK-293T): 9 µM | Activity (RS4-11 [26]): Dose-Dependent Effect | Activity (RS4-11 [27]): Dose-Dependent Effect | Activity [4]: inactive | viability at 20 µM (RS4-11 [14]): 1.39% | IC50 (HL-60 [15]): 5.3 µM | Activity (RS4-11 [32]): 75% | Activity (RS4-11 [16]): 4.15% | Activity (RS4-11 [33]): >60% | Ki [5]: 4.9 µM
